Reference: ChEMBL document CHEMBL1201862, “PubChem BioAssay data set” (2004)
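Assay format: 96-well plates, 48-hour exposure. Here, GI50 denotes the concentration required for 50% inhibition of growth.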 Active and inactive are the calls of the source. No stated cut-off is given here; in the data, active = GI50 up to about 1.1 µM and inactive = higher.

Experiments:
Assay in all cases: NCI tumour cell line growth inhibition, 48 h
[1] = tested on: SNB-78
[2] = tested on: DMS-114
[3] = tested on: RXF 631
[4] = tested on: DLD-1
[5] = tested on: M19-MEL
[6] = tested on: LXFL 529
[7] = tested on: XF498
[8] = tested on: HOP-18
[9] = tested on: DMS-273

O=c1[nH]c(=O)n(C2OC(COP(=O)(O)OP(=O)(O)OC3OC(CO)C(O)C(O)C3O)C(O)C2O)cc1F (stereo not given)
GI50 [1]: 0.366 µM (active)
GI50 [2]: 1.13 µM (inactive)
GI50 [3]: 0.0716 µM (active)
GI50 [4]: < 0.0119 µM (active)
GI50 [5]: 0.191 µM (active)
GI50 [6]: 0.151 µM (active)
GI50 [7]: 0.277 µM (active)
GI50 [8]: 3.22 µM (inactive)

O=C1N(c2ccc(Cl)cc2)C(=O)C2(SC=NN2Cc2ccccc2)N1c1ccc(Cl)cc1 (stereo not given)
GI50 [1]: > 100 µM (inactive)
GI50 [2]: 12.3 µM (inactive)
GI50 [3]: > 100 µM (inactive)
GI50 [4]: > 100 µM (inactive)
GI50 [5]: > 100 µM (inactive)
GI50 [6]: > 100 µM (inactive)
GI50 [7]: 28.6 µM (inactive)
GI50 [8]: > 100 µM (inactive)

CC1=C2C(=CC(C)(C)C2O)C(=O)C(C)(O)C12CC2 (stereo not given)
GI50 [1]: 0.00893 µM (active)
GI50 [2]: 0.00794 µM (active)
GI50 [4]: 0.00665 µM (active)
GI50 [5]: 0.0157 µM (active)
GI50 [6]: 0.0198 µM (active)
GI50 [9]: 0.00489 µM (active)
GI50 [7]: 0.00906 µM (active)
GI50 [8]: 0.0337 µM (active)

O=C1C(=O)N(c2nccs2)C(=O)C(=O)C1c1nc2ccccc2s1
GI50 [1]: > 100 µM (inactive)
GI50 [2]: > 100 µM (inactive)
GI50 [4]: > 100 µM (inactive)
GI50 [5]: > 100 µM (inactive)
GI50 [6]: 94 µM (inactive)
GI50 [9]: > 100 µM (inactive)
GI50 [7]: > 100 µM (inactive)
GI50 [8]: 9.23 µM (inactive)

O=C1C2=C(c3ccccc31)C(c1ccccc1)N1C(=O)CSC1=N2 (stereo not given)
GI50 [2]: 43.1 µM (inactive)
GI50 [3]: 80.9 µM (inactive)
GI50 [4]: > 100 µM (inactive)
GI50 [5]: > 100 µM (inactive)
GI50 [6]: 52 µM (inactive)
GI50 [9]: 55.8 µM (inactive)
GI50 [7]: > 100 µM (inactive)

CN(C)C(=S)Nc1nnc(NC23CC4CC(CC(C4)C2)C3)s1.[O-][Cl+3]([O-])([O-])O
GI50 [1]: 39.2 µM (inactive)
GI50 [2]: 19.4 µM (inactive)
GI50 [5]: 19.6 µM (inactive)
GI50 [9]: 20.6 µM (inactive)

CCOc1ccc2c(ccc(/C=C/c3cc(C)c4cccnc4c3O)[n+]2C)c1
GI50 [2]: 0.301 µM (active)
GI50 [4]: 1.28 µM (inactive)
GI50 [5]: 2.99 µM (inactive)
GI50 [6]: 0.384 µM (active)
GI50 [8]: 2.8 µM (inactive)

C/C(=N\NC(=S)NC(CCC(=O)O)C(=O)O)c1ccccn1 (stereo not given)
GI50 [1]: > 100 µM (inactive)
GI50 [2]: > 100 µM (inactive)
GI50 [3]: > 100 µM (inactive)
GI50 [4]: > 100 µM (inactive)
GI50 [5]: > 100 µM (inactive)
GI50 [6]: > 100 µM (inactive)
GI50 [7]: > 100 µM (inactive)
GI50 [8]: > 100 µM (inactive)

O=C(CSc1nnc(-c2ccc(/N=C\c3ccc(Cl)cc3)cc2)o1)Nc1ccc([N+](=O)[O-])cc1
GI50 [1]: 20 µM (inactive)
GI50 [2]: 16.2 µM (inactive)
GI50 [5]: 17.1 µM (inactive)
GI50 [6]: 15.8 µM (inactive)
GI50 [9]: 16.5 µM (inactive)
GI50 [7]: 22.9 µM (inactive)
GI50 [8]: 29 µM (inactive)

CSc1nc2c(nc(N)n2C2OC(CO)C(O)C(O)C2O)c(=O)[nH]1 (stereo not given)
GI50 [1]: > 100 µM (inactive)
GI50 [2]: > 100 µM (inactive)
GI50 [3]: > 100 µM (inactive)
GI50 [4]: > 100 µM (inactive)
GI50 [5]: > 100 µM (inactive)
GI50 [6]: > 100 µM (inactive)
GI50 [7]: 41.3 µM (inactive)
GI50 [8]: > 100 µM (inactive)

CC(C)C1=CC23CCC4C(C)(C(=O)O)CCCC4(C)C2CC1C1C(=O)N(c2ccccc2)C(=O)C13 (stereo not given)
GI50 [2]: 35.4 µM (inactive)
GI50 [4]: > 100 µM (inactive)
GI50 [5]: 57.8 µM (inactive)
GI50 [6]: 43.9 µM (inactive)
GI50 [9]: 36.1 µM (inactive)
GI50 [7]: 35.2 µM (inactive)
GI50 [8]: > 100 µM (inactive)

Cc1cc(Cl)ccc1NC(=O)C(=O)C(C(=O)c1ccc2ccccc2c1)C1OC(=O)c2ccccc21 (stereo not given)
GI50 [1]: 10.3 µM (inactive)
GI50 [2]: 6.15 µM (inactive)
GI50 [3]: 7.89 µM (inactive)
GI50 [4]: 14.3 µM (inactive)
GI50 [5]: 10.1 µM (inactive)
GI50 [6]: 6.47 µM (inactive)
GI50 [9]: 12.4 µM (inactive)
GI50 [8]: 0.544 µM (active)

CC(=O)O[C@H]1C(=O)O[C@@H]2C[C@H]3C(C)=CC(=O)[C@@H](O)[C@]3(C)[C@H]3[C@@]4(O)OC[C@]32[C@@H]1[C@@H](C)[C@H]4O
GI50 [1]: 0.0515 µM (active)
GI50 [2]: 0.0253 µM (active)
GI50 [4]: 0.03 µM (active)
GI50 [5]: 0.0272 µM (active)
GI50 [9]: 0.0264 µM (active)
GI50 [7]: 0.031 µM (active)
GI50 [8]: 0.177 µM (active)

COC1=CC(=O)C(Br)=CC1=O
GI50 [1]: > 10 µM (inactive)
GI50 [2]: 20.5 µM (inactive)
GI50 [3]: 31.6 µM (inactive)
GI50 [4]: 32.3 µM (inactive)
GI50 [5]: 17.7 µM (inactive)
GI50 [6]: 17.2 µM (inactive)
GI50 [9]: > 10 µM (inactive)
GI50 [7]: 16.9 µM (inactive)

CCc1c(C#N)c(=O)[nH]c(=O)n1CCN1CCN(C(=O)NCCCCCCNC(=O)N2CCN(CCn3c(CC)c(C#N)c(=O)[nH]c3=O)CC2)CC1
GI50 [1]: > 100 µM (inactive)
GI50 [2]: > 100 µM (inactive)
GI50 [3]: > 100 µM (inactive)
GI50 [4]: > 100 µM (inactive)
GI50 [5]: > 100 µM (inactive)
GI50 [6]: > 100 µM (inactive)
GI50 [9]: > 100 µM (inactive)
GI50 [7]: > 100 µM (inactive)
GI50 [8]: > 100 µM (inactive)

COC(=O)/C(=N\NC(=O)c1ccccc1O)C(C#N)c1ccc(Cl)cc1 (stereo not given)
GI50 [1]: 26.2 µM (inactive)
GI50 [2]: 24.7 µM (inactive)
GI50 [3]: 36.1 µM (inactive)
GI50 [4]: 24.5 µM (inactive)
GI50 [5]: 75.9 µM (inactive)
GI50 [6]: 34.3 µM (inactive)
GI50 [8]: 69.3 µM (inactive)

O=C(Nc1ccccc1)OCc1nc2c([nH]1)C(=O)C=CC2=O
GI50 [1]: 23.2 µM (inactive)
GI50 [4]: > 100 µM (inactive)
GI50 [5]: 16 µM (inactive)
GI50 [6]: 3.1 µM (inactive)
GI50 [9]: 24.2 µM (inactive)
GI50 [7]: 17.2 µM (inactive)
GI50 [8]: 10.5 µM (inactive)

COc1cc(/C=C2\NC(=O)C3Cc4c(OC)c(C)c(OC)c(OC)c4C2N3C)c(OC)c(C)c1OC (stereo not given)
GI50 [1]: > 100 µM (inactive)
GI50 [2]: > 100 µM (inactive)
GI50 [3]: > 100 µM (inactive)
GI50 [4]: > 100 µM (inactive)
GI50 [5]: > 100 µM (inactive)
GI50 [6]: > 100 µM (inactive)
GI50 [9]: > 100 µM (inactive)
GI50 [7]: > 100 µM (inactive)
GI50 [8]: > 100 µM (inactive)

CCC12C[N+]3([O-])CCc4c([nH]c5ccccc45)C(C(=O)OC)(c4cc5c(cc4OC)N(C)C4C(O)(C(=O)OC)C(OC(C)=O)C6(CC)C=CCN7CCC54C76)CC(C3)C1O2 (stereo not given)
GI50 [1]: 0.506 µM (active)
GI50 [2]: 0.36 µM (active)
GI50 [4]: 0.883 µM (active)
GI50 [5]: 0.617 µM (active)
GI50 [6]: 0.656 µM (active)
GI50 [9]: 0.237 µM (active)
GI50 [7]: 0.407 µM (active)
GI50 [8]: 16 µM (inactive)

Nc1c(C(=O)Nc2ccccc2O)[n+]([O-])c2ccccc2[n+]1[O-]
GI50 [1]: > 100 µM (inactive)
GI50 [2]: 20.5 µM (inactive)
GI50 [3]: 50.6 µM (inactive)
GI50 [4]: > 100 µM (inactive)
GI50 [5]: 14.2 µM (inactive)
GI50 [6]: > 100 µM (inactive)
GI50 [9]: 32.6 µM (inactive)
GI50 [8]: > 100 µM (inactive)

O=C(CSc1nnc(-c2ccc(/N=C\c3ccc(Cl)cc3)cc2)o1)Nc1cccc([N+](=O)[O-])c1
GI50 [1]: > 100 µM (inactive)
GI50 [2]: > 100 µM (inactive)
GI50 [5]: > 100 µM (inactive)
GI50 [6]: > 100 µM (inactive)
GI50 [9]: > 100 µM (inactive)
GI50 [8]: > 100 µM (inactive)

CC1(Cc2ccccc2)NC(=S)NC1=O (stereo not given)
GI50 [1]: > 100 µM (inactive)
GI50 [2]: > 100 µM (inactive)
GI50 [3]: > 100 µM (inactive)
GI50 [4]: > 100 µM (inactive)
GI50 [5]: > 100 µM (inactive)
GI50 [6]: > 100 µM (inactive)
GI50 [9]: > 100 µM (inactive)
GI50 [8]: 0.143 µM (active)

O=C(c1ccccc1)C(c1ccccc1)C1(O)C(=O)Nc2ccc(Br)cc21 (stereo not given)
GI50 [1]: > 100 µM (inactive)
GI50 [2]: 21.6 µM (inactive)
GI50 [3]: 33.7 µM (inactive)
GI50 [4]: 48.2 µM (inactive)
GI50 [5]: 15.4 µM (inactive)
GI50 [6]: 19.8 µM (inactive)
GI50 [9]: 31.6 µM (inactive)
